Legend:
[1] = passive avoidance test; type: in vivo; details: 0.1, 1 or 10 mg/kg p.o.
[2] = target: somatostatin sst3 receptors (Homo sapiens, UniProt P32745); experiment: radioligand binding, somatostatin receptor expressing cell cultures; details: sst3 versus other somatostatin receptors
Excerpt: (§1) In particular the agents of the invention show high affinity to somatostatin receptors. More particularly they are selective antagonists at somatostatin sst3 receptors, previously called SSTR-3 receptors (see Hoyer et al., TiPS, 1995, 16; 86-88), as determined in radioligand binding and second messenger studies [see for example K. Kaupmann et al., FEBS Letts. 1993, 331:53-59.

[3] = target: mouse sst3 receptor (Mus musculus, UniProt P30935); experiment: radioligand binding, mouse sst3 receptor; details: read-out: pKd, mouse receptor (converted)
Sequence of mouse sst3 receptor (P30935 whole entry): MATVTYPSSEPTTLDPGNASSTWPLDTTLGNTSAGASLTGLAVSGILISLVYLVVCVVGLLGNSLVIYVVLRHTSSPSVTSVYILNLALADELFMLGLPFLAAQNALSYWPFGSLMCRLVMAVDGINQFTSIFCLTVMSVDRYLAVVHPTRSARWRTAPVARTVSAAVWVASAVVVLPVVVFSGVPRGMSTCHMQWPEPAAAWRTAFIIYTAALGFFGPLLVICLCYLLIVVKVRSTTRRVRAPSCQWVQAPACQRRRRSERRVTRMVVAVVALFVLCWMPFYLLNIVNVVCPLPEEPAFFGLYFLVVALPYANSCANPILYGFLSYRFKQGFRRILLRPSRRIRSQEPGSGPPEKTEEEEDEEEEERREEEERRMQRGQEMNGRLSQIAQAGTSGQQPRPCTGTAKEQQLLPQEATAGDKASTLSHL
Excerpt: as §1
(§2) The preferred agent of the invention for the above-mentioned indications is the (R)-1,1-bis-ethoxymethyl-3-(4-phenyl-1H-imidazol-2-yl)-2,3,4,9-tetrahydro-1H-β-carboline, in free base or acid addition salt form. […] In the forced swim test (Porsolt), the immobility time is shortened by 30-45% on subchronic administration of 12.5-25 mg/kg p.o.

[4] = target: human sst3 receptor (Homo sapiens, UniProt P32745); experiment: radioligand binding, human sst3 receptor; details: read-out: pKd, human receptor (converted)
Sequence of human sst3 receptor (P32745 whole entry): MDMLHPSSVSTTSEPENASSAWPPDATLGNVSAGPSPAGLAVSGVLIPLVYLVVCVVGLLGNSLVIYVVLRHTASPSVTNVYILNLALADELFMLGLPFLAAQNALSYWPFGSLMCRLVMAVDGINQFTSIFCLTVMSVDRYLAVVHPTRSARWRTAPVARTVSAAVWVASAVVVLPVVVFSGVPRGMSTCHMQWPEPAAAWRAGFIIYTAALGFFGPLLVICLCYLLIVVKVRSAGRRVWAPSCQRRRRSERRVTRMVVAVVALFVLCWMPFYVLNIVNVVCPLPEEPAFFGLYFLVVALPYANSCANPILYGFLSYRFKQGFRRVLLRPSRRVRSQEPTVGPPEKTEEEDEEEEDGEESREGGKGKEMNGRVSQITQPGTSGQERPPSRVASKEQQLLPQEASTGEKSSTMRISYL
Excerpt: as §1, §2

[5] = test system: rats; experiment: social exploration test / social contact assay; type: in vivo; details: rat
Protocol: In the social exploration test at doses of about 0.01 to 10 mg/kg p.o., the agents of the invention increase social contact time of rats similarly to classical anxiolytics such as benzodiazepines e.g. chlordiazepoxide or NK1 antagonists (Vassout A, Veenstra S, Hauser K, Ofner S, Brugger F, Schilling W, Gentsch C, Regulatory Peptides. 2000; 96, 7-16).
as §2

[6] = test system: rat; experiment: forced swim test (Porsolt), rat; type: in vivo; details: subchronic administration of 12.5-25 mg/kg p.o.
Protocol: The agents of the invention show antidepressant-like effects in the rat, similar to desipramine or fluoxetine when given subchronically (10-30 mg/kg, p.o.) in the forced swim test. (Porsolt, R. D. et al. Nature. 1977: 266, 730-732) and also produce antidepressant-like effects in the mouse, similar to fluoxetine (Porsolt, R. D. et al. Nature 1977: 266, 730-732). Finally, these agents, when given once per day for 14 days, (0.3-30 mg/kg p.o.), reverse both the characteristic hyper-reactivity of bulbectomised rats when first placed in a novel and stressful environment and the total activity, similar to imipramine and desipramine. (Song C and Leonard BE. Hum. Psychopharmacol 1994; 9: 135-146).
as §2

[7] = test system: mice; experiment: social recognition test; type: in vivo; details: doses between 0.03 and 3 mg/kg p.o.
Protocol: The agents of the invention at 0.03-3 mg/kg p.o. enhance leaming/mlmory in mice as measured in the social recognition test similar to oxiracetam or GABAB blockers (Thor D. H. and Holloway W. R. J. Comp. Physiol. Psychol. 1982; 96: 1000-1006. Mondadori C. et al., Behavioural Brain Research 1996, 77: 227-229).
as §2

Sequence of somatostatin sst3 receptors (P32745 whole entry): as above

Row | SMILES | melting point [°C] | impairment of memory formation in passive avoidance test [1] | selectivity over other somatostatin receptors [2] | Kd [3] [nM] | Kd [4] [nM] | dose of maximal amplitude, social contact assay [5] | duration of social contacts of the intruder towards the resident ([5]; 0.01-10 mg/kg p.o.) | shortening of immobility time [6] | social recognition of a familiar partner [7]
1 | CCCCC1(CCCC)N[C@@H](c2nc(-c3ccncc3)c[nH]2)Cc2c1[nH]c1ccccc21 [Example 1, (R)-1,1-Dibutyl-3-(4-pyridin-4-yl-1H-imidazol-2-yl)-2,3,4,9-tetrahydro-1H-β-carboline] | 200 to 205 | – | – | – | – | – | – | – | –
2 | CCOCC1(COCC)N[C@@H](c2nc(-c3ccccc3)c[nH]2)Cc2c1[nH]c1ccccc21 [Example 10, (R)-1,1-bis-ethoxymethyl-3-(4-phenyl-1H-imidazol-2-yl)-2,3,4,9-tetrahydro-1H-β-carboline] | – | no impairment of memory formation | more than 400 fold | 5.01 | 2.04 | 0.3-3 mg/kg p.o. | increases dose dependently the duration of social contacts | 30-45% | significant increase of social recognition
